Earlier results, collected in patent US20140080710A1, “COMPOSITIONS WITH HOT MELT RESIN MATRIX” (AgroFresh Inc., priority 2012, published 2014).

Test system: ethylene receptor
Conditions: compared with ethylene

## CC1=CC1 [Sample 1-MCP, 1-methylcyclopropene]
  affinity for the receptor relative to that of ethylene: approximately 10 times
